# Data as given in patent publication US9974767B2, “Statins in the treatment of muscular dystrophies and myopathies” (University of Washington, priority 2014, dated 2018).
# Several values for one entry are separate records, joined by “and”; a condition that tells them apart may be missing. Identical values can stand only once.
# Legend:
# Format in all cases: in vivo, mouse
# mdx mice [1] = assay: Diaphragm specific force, ex vivo muscle strips
# From the text: Therefore, it is often difficult to fully evaluate the therapeutic potential of these compounds. When compared with results obtained with a clinically relevant dystrophin gene therapy approach, the magnitude of increased diaphragm force in Simvastatin-treated mice (25%) is quite impressive. Specifically, systemic delivery of a micro-dystrophin-expressing AAV vector to mdx mice provides a slightly lower (20%) average improvement in diaphragm specific force.
# In mdx mice, the diaphragm is the most severely affected skeletal muscle and diaphragm dysfunction is a major cause of respiratory failure in DMD.
# The diaphragm most closely recapitulates the functional deficits and fibrotic deposition that occur in DMD. […] The replacement of muscle fibers with fibrotic connective tissue is a major cause of impaired muscle force generation in DMD and therefore an important therapeutic target. […] Quantification of total collagen I levels in diaphragm muscles by hydroxyproline assay also indicated a 50% reduction in fibrosis for mdx Sim mice (FIG. 13E).
# Diaphragm function, ex vivo, was measured as described previously. Briefly, diaphragm strips (2-3 mm wide) were perfused with a physiological solution bubbled with 95% O2-5% CO2. Stimulation was provided by two platinum electrodes, attached along the sides of the chamber. A lengthforce curve, established using 120 Hz isometric contractions (300 ms duration spaced 1 min apart, established the optimum length (length producing maximum tetanic force), which was later used to calculate the specific force (force divided by cross-sectional area).
# mdx mice [2] = assay: Voluntary running wheel activity over 2 days; conditions: P=0.13
# LC3A/LC3B = assay: LC3A and LC3B expression in diaphragm (autophagy), Western blot; conditions: old mdx Sim vs mdx Con
# From the text: Autophagy is an important cellular pathway for degrading damaged proteins, organelles and protein aggregates, which are then recycled by the cell for energy use. Impaired autophagy can trigger cell death and in skeletal muscle, proper regulation of autophagy is essential for normal cellular and physiological function. Both mdx and DMD muscles show evidence of reduced autophagy and treatment of mdx mice with a low protein diet triggered autophagy, which reduced inflammation and fibrosis and enhanced muscle function. […] A key protein marker of autophagic flux is the microtubule-associated protein 1A/1B light chain 3, which has a cytosolic form (LC3A) and a lapidated form (LC3B). An increased level of LC3B relative to LC3A is indicative of enhanced autophagic flux.
# Tibialis anterior (TA) muscle function was measured in situ. Mice were anaesthetized with an intraperitoneal injection of Avertin (625 mg/kg) and placed on a heated metal platform (37° C.). The distal TA tendon was dissected free and sutured to the lever arm of the force and length control system (305C-LR, Aurora Scientific). […] Fatigue recovery was measured every 2 min up to 10 min post-fatigue. […] Membranes were incubated with enhanced chemiluminescence (ECL) reagent (Amersham) and bands were detected by the FluorChem M, imaging system (Protein Simple).
# [3] = tested on: Phospholamban (PLB), SERCA2a; assay: SERCA2a, PLB S-16 and total PLB expression in cardiac muscle, immunoblotting; conditions: old mdx mice, vs mdx Con
# From the text: Aberrant Ca2+ handling in dystrophic cardiomyocytes leads to impaired relaxation, which is a major cause of diastolic dysfunction. […] Phospholamban (PLB) is a major inhibitor of SERCA activity and can therefore depress cardiac function.
smiles,measurement,setting,value
"CCC(C)(C)C(=O)O[C@H]1C[C@@H](C)C=C2C=C[C@H](C)[C@H](CC[C@@H]3C[C@@H](O)CC(=O)O3)[C@H]21 [Simvastatin, simvastatin]",improvement of diaphragm specific force,"mdx mice [1]; mdx Sim vs mdx Con, 8 months treatment, stimulation 1 to 120 Hz",25% and 20-25%
same,improvement of diaphragm specific force,"mdx mice [1]; mdx Sim vs mdx Con, 8 months treatment, stimulation 1 to 120 Hz, listed as simvastatin",20-25%
same,improvement of diaphragm specific force,"mdx mice [1]; old mdx mice, 2 months treatment from 12 months of age, 10 to 120 Hz, vs untreated mdx",20-30%
same,"voluntary running wheel activity, more than control mdx mice",mdx mice [2],20%
same,increase of LC3B,LC3A/LC3B,40%
same,increase of PLB S-16,[3],55%
